{"source": "patent US20240285755A1", "about": "“Adjuvants” (GlaxoSmithKline Biologicals SA, priority 2021, published 2024)", "test_system": "HSV-1 gE/gI", "experiment": "Total anti-HSV-1 gE/gI cross-reactive IgG antibodies by ELISA in serum of immunised mice", "assay_type": "in vivo, CB6F1 mice", "details": "0.1 ug LNP/SAM i.m. days 0 & 28, adjuvanted with 2.22 ug of STING agonist at day+0, +1 or +3; 21PII (day 49); FIG. 3", "experimental": "Female CB6F1 inbred mice aged 6-8 weeks old were randomly assigned to study groups (n=8 gr1-10 (groups 1-10) and n=4/gr11 (group 11)) and kept under pathogen-free conditions. Mice ([…]) were intramuscularly (i.m.) immunized, in the gastrocnemius muscle, on days 0 and 28 with 0.1ug of LNP-formulated SAM (25 uL volume) comprising a heterodimer of the HSV-2 gE and gI proteins (LNP/SAM-gE_P317R/gI) and were injected, in the same muscle, with different doses of STING agonist (0.25, 0.74 or 2.22ug) either at the same time (day+0) or 1 or 3 days after each of the two SAM immunizations. […]\nQuantification of the total HSV-1 gE/gI-specific IgG antibodies was performed using indirect ELISA. […]\nThe plates were then washed four times with washing buffer and 2 times with deionised water and incubated for 15 min at RT (room temperature) with 100 uL/well of a solution of 75% single-component TMB peroxidase ELISA substrate diluted in sodium citrate 0.1M pH5.5 buffer. Enzymatic color development was stopped with 100 uL of […] sulfuric acid 1M (H2SO4) per well and the plates were read at an absorbance of 450/620 nm using an ELISA reader. Optical densities (OD) were captured and analysed. […] Antibody titer in the samples was calculated by interpolation of the standard curve. […]", "data": [{"smiles": "CCn1nc(C)cc1C(=O)/N=c1\\[nH]c2cc(C(N)=O)cc(OC)c2n1C/C=C/Cn1/c(=N/C(=O)c2cc(C)nn2CC)[nH]c2cc(C(N)=O)cc(OCCCOP(=O)(O)O)c21", "note": "[STING, 3-(((E)-6-carbamoyl-3-((E)-4-((E)-5-carbamoyl-2-((1-ethyl-3-methyl-1H-pyrazole-5-carbonyl)imino)-7-methoxy-2,3-dihydro-1H-benzo[d]imidazol-1-yl)but-2-en-1-yl)-2-((1-ethyl-3-methyl-1H-pyrazole-5-carbonyl)imino)-2,3-dihydro-1H-benzo[d]imidazol-4-yl)oxy)propyl]", "values": [{"measurement": "GM titers of anti-HSV-1 gE/gI cross reactive IgG antibody relative to unadjuvanted control", "result": "increased GM titers of anti-HSV-1 gE/gI cross reactive IgG antibody in all groups"}]}]}
